The record followed here is US5284847A, “Thieno pyrazine diones, their preparation and use” (Novo Nordisk A/S, priority 1991, dated 1994).

In assay [1] the target is T1, glycine site of the NMDA receptor complex (Rattus norvegicus, UniProt P35439).
T1 construct: Crude synaptic (P2) membranes are prepared from rat forebrains freshly dissected from male Wistar rats; from tissue; host or cells: forebrain of male Wistar rats, crude synaptic (P2) membranes, washed with Triton X-100
Description: In vitro [3H]-Glycine Binding to Rat Brain Membranes (Test 1). Further details: species or system rat (male Wistar). Particulars: rat forebrain membranes, 4° C., 30 min, read-out: IC50, displacement of 50% of the specific binding of [3H]-glycine. On the procedure:
The compounds according to the invention were tested as regards the affinity for one or more of the different types of excitatory amino acid receptors and studied in simple radioligand binding experiments. In essence, the method involves incubation of a particular selected radiolabelled ligand and the particular specific substance to be investigated with brain homogenates which contain the receptor. Measurement of receptor occupancy is made by determination of the specific radioactivity bound to the homogenate.
The glycine site binding activity of these compounds of the present invention can be illustrated by determining their capability for displacing radioactively labelled glycine from the glycine site.
The displacement activity of the compounds may be shown by determining the IC50 value which represents the concentration (μM) which causes a displacement of 50% of the specific binding of [^3 H)-glycine.
In vitro [^3 H]-Glycine Binding to Rat Brain Membranes (Test 1)
The membrane preparation and assay of specific [^3 H]-glycine binding is based upon methodology described by Haring et al. (1991) J. Neurochem. 57, 323-332 and Yoneda et al. (1991) J. Neurochem. 55, 237-244.
All steps are performed at 4° C. Buffers are prepared fresh each week from distilled, deionized water and filtered through sterile 0.2 μm membranes to eliminate artifacts due to microbial contamination. Crude synaptic (P2) membranes are prepared from rat forebrains freshly dissected from male Wistar rats and washed 4 times with low ionic strength buffer.,On the day of the assay these preparations are additionally washed with buffer containing a low concentration (0.08% g/g) of Triton X-100, and then twice more in the absence of this detergent. The procedure is aimed at the disruption of synaptic membrane vesicles and removal of endogenous amino acids.
Specific radioligand binding is measured by incubating membranes (400-600 μg/ml of protein) with […] [^3 H]-glycine in the presence or absence of 1mM of unlabelled glycine at 4° C. for 30 min. Free and bound ligand are separated by centrifugation. Each pellet is rinsed 2X and bound radioactivity measured by liquid scintillation counting. Test substances are substituted for unlabelled glycine in the assay.

Assay [2] deals with convulsions induced by i.c.v. infusion of NMDA. Description: Convulsions induced by i.c.v. infusion of NMDA (Test 2), time to onset of clonic seizures. It is filed as in vivo, mouse (male NMRI). Particulars: i.c.v. co-infusion with NMDA, mice. As to the method: The glycine antagonists are co-infused with NMDA and their anticonvulsive effect is measured by determining a) the TVSO value which represents the dose (μg/kg) of the glycine antagonist that has to be infused per minute in order to increase time to onset of clonic seizures by 50%, b) the ED50 value which represents the dose (μg/kg) of the glycine antagonist that has to be infused per minute in order to protect 50% of the animals against clonic seizures for 150 seconds after the start of i.c.v. infusion.
Convulsions induced by i.c.v. infusion of NKDA (Test 2 & 3)
58.84 μg/ml ([…] in 2.5 μl) of NMDA (Sigma) dissolved in 0.9% NaCl is co-infused i.c.v. with a glycine antagonist at a speed of 5 μl/min. Infusion is performed through a cannula placed 1 mm posterior and 1 mm lateral to the Bregma point. The cannula is injected […] into the skull of male NMRI mice weighing 25 g (range 23-27 g). Placement and length of the cannula into the skull is fixed by a plate positioned 4.3 mm from the point of the cannula. The infusion is stopped after the appearance of clonic seizures in all extremities or 150 seconds after the start time of the infusion. At least 5 doses of each glycine antagonist are tested using 8 mice per dose.

As usually defined, the IC50 is the concentration that gives 50% inhibition. As for `Cc1csc2[nH]c(=O)c(=O)[nH]c12` [Example 2, 7-Methylthieno(2,3-b)pyrazine-2,3(1H,4H)-dione], the IC50 in assay [1] amounted to 1000 nM. Further, the “TV50, dose infused per minute to increase time to onset of clonic seizures by 50%” value in assay [2] worked out at 0.007 mg/kg.
Regarding `Cc1sc2[nH]c(=O)c(=O)[nH]c2c1C#N` [Example 6, 7-Cyano-6-methylthieno[2,3-b)pyrazine-2,3(1H,4H)-dione], the 50% inhibitory concentration (IC50) in assay [1] is 1270 nM. Also, the “TV50, dose infused per minute to increase time to onset of clonic seizures by 50%” value in assay [2] was found to be 0.044 mg/kg.
As for `CCCc1c(Cl)sc2[nH]c(=O)c(=O)[nH]c12` [Example 10, 6-Chloro-7-propylthieno[2,3-b)pyrazine-2,3(1H,4H)-dione], in assay [1], the 50% inhibitory concentration (IC50) turned out to be 180 nM. Besides, the “TV50, dose infused per minute to increase time to onset of clonic seizures by 50%” value in assay [2] is 0.0094 mg/kg.
As for `O=c1[nH]c2scc(C3CC3)c2[nH]c1=O` [Example 25, 7-Cyclopropylthieno(2,3-b]pyrazine-2,3(1H,4H)-dione], in assay [1], the IC50 was 850 nM. Besides, in assay [2], the “TV50, dose infused per minute to increase time to onset of clonic seizures by 50%” value is 0.076 mg/kg.
As to `O=c1[nH]c2scc(Br)c2[nH]c1=O` [Example 38, 7-Bromothieno(2,3-b)pyrazine-2,3(1H,4H)-dione], the half-inhibitory concentration (IC50) in assay [1] amounted to 180 nM. For the same compound, the “TV50, dose infused per minute to increase time to onset of clonic seizures by 50%” value in assay [2] came out at 0.0348 mg/kg.
